Assay results published in patent US7115296B2, “N-alkylaspartyl amide derivative and sweetening agent” (Ajinomoto Co., Inc., priority 2001, dated 2006).
Read-outs that look alike come from different tables or passages of the source. Peptide text beside a SMILES is read from it.

How the values were obtained:
[1] = sensory (organoleptic) test of sweetening potency
[2] = times that of sucrose; reported in WO 94/11391; cited from earlier work
physchem = conditions: buffer, pH 3
[3] = times the sweetness of sugar, sensory test
[4] = values compared to sweetening potency of a 4% aqueous solution of sucrose

| SMILES | Sweetening potency [1, 3] | Sweetening potency [1, 4] | also measured |
| --- | --- | --- | --- |
| COc1ccc(CCCN[C@@H](CC(=O)O)C(=O)N[C@H](C)C(O)CC2CCCCC2)cc1O (mixture of isomers) [compound 12, N-[3-(3-hydroxy-4-methoxyphenyl)propyl]-α-L-aspartyl N-(1R,2RS)-1-methyl-2-hydroxy-3-cyclohexylpropyl amide] | 4000 times | 4000 |  |
| COC(=O)[C@H](Cc1ccccc1)NC(=O)[C@H](CC(=O)O)NCCC(C)(C)C [N-[N-(3,3-dimethylbutyl)-L-α-aspartyl]-L-phenylalanine 1-methyl ester] |  |  | Sweetening potency [2]: 10000 times |
| COC(=O)[C@H](Cc1ccccc1)NC(=O)[C@@H](N)CC(=O)O [aspartame] (H-Asp-Phe-OMe) |  |  | half-life (physchem): ~30 h |
| CC[C@@H](C[C@H](O)[C@@H](C)NC(=O)[C@H](CC(=O)O)NCCCc1ccc(OC)c(O)c1)c1ccccc1 [compound 1, N-[3-(3-hydroxy-4-methoxyphenyl)propyl]-α-L-aspartyl N-(1R,2S,4S)-1-methyl-2-hydroxy-4-phenylhexyl amide] | approximately 15000 times | 15000 | Sweetening potency ([1]; times the sweetness of sugar, sensory test, listed as Compound No.1): 15000 times |
| CC[C@@H](C[C@H](O)[C@@H](C)NC(=O)[C@H](CC(=O)O)NCCCc1ccc(O)c(OC)c1)c1ccccc1 [compound 2, N-[3-(3-methoxy-4-hydroxyphenyl)propyl]-α-L-aspartyl N-(1R,2S,4S)-1-methyl-2-hydroxy-4-phenylhexyl amide] | 10000 times | 10000 |  |
| CC[C@@H](C[C@H](O)[C@@H](C)NC(=O)[C@H](CC(=O)O)NCCCc1ccc(OC)cc1O)c1ccccc1 [compound 3, N-[3-(2-hydroxy-4-methoxyphenyl)propyl]-α-L-aspartyl N-(1R,2S,4S)-1-methyl-2-hydroxy-4-phenylhexyl amide] | 6000 times | 6000 |  |
| CC[C@@H](C[C@H](O)[C@@H](C)NC(=O)[C@H](CC(=O)O)NCCCc1ccc(O)cc1O)c1ccccc1 [compound 4, N-[3-(2,4-dihydroxyphenyl)propyl]-α-L-aspartyl N-(1R,2S,4S)-1-methyl-2-hydroxy-4-phenylhexyl amide] | 10000 times | 10000 |  |
| CC[C@@H](C[C@H](O)[C@@H](C)NC(=O)[C@H](CC(=O)O)NCCCc1ccc(C)c(O)c1)c1ccccc1 [compound 5, N-[3-(3-hydroxy-4-methylphenyl)propyl]-α-L-aspartyl N-(1R,2S,4S)-1-methyl-2-hydroxy-4-phenylhexyl amide] | 6000 times | 6000 |  |
| CC[C@@H](C[C@H](O)[C@@H](C)NC(=O)[C@H](CC(=O)O)NCCCc1ccc(O)c(C)c1)c1ccccc1 [compound 6, N-[3-(3-methyl-4-hydroxyphenyl)propyl]-α-L-aspartyl N-(1R,2S,4S)-1-methyl-2-hydroxy-4-phenylhexyl amide] | 4000 times | 4000 |  |
| CC[C@@H](C[C@H](O)[C@@H](C)NC(=O)[C@H](CC(=O)O)NCCCc1ccc(O)cc1)c1ccccc1 [compound 7, N-[3-(4-hydroxyphenyl)propyl]-α-L-aspartyl N-(1R,2S,4S)-1-methyl-2-hydroxy-4-phenylhexyl amide] | 6000 times | 6000 |  |
| CC[C@@H](C[C@H](O)[C@@H](C)NC(=O)[C@H](CC(=O)O)NCCCc1ccc(OC)cc1)c1ccccc1 [compound 8, N-[3-(4-methoxyphenyl)propyl]-α-L-aspartyl N-(1R,2S,4S)-1-methyl-2-hydroxy-4-phenylhexyl amide] | 3000 times | 3000 |  |
| CC[C@@H](C[C@H](O)[C@@H](C)NC(=O)[C@H](CC(=O)O)NCCC(C)(C)c1ccc(OC)c(O)c1)c1ccccc1 [compound 9, N-[3-methyl-3-(3-hydroxy-4-methoxyphenyl)butyl]-α-L-aspartyl N-(1R,2S,4S)-1-methyl-2-hydroxy-4-phenylhexyl amide] | approximately 15000 times | 15000 | Sweetening potency ([1]; times the sweetness of sugar, sensory test, listed as Compound No.9): 15000 times |
| CC[C@@H](C[C@H](O)[C@@H](C)NC(=O)[C@H](CC(=O)O)NCCC(C)(C)c1ccc(O)c(C)c1)c1ccccc1 [compound 10, N-[3-methyl-3-(3-methyl-4-hydroxyphenyl)butyl]-α-L-aspartyl N-(1R,2S,4S)-1-methyl-2-hydroxy-4-phenylhexyl amide] | 15000 times | 15000 |  |
| CC[C@H](C[C@H](O)[C@@H](C)NC(=O)[C@H](CC(=O)O)NCCCc1ccc(OC)c(O)c1)c1ccccc1 [compound 11, N-[3-(3-hydroxy-4-methoxyphenyl)propyl]-α-L-aspartyl N-(1R,2S,4R)-1-methyl-2-hydroxy-4-phenylhexyl amide] | 4000 times | 4000 |  |
| COc1ccc(CCCN[C@@H](CC(=O)O)C(=O)N[C@H](C)[C@H](O)CC2CCCCC2)cc1O [compound 13, N-[3-(3-hydroxy-4-methoxyphenyl)propyl]-α-L-aspartyl N-(1R,2R)-1-methyl-2-hydroxy-3-cyclohexylpropyl amide] | 5000 times | 5000 |  |
| COc1ccc(C(C)(C)CCN[C@@H](CC(=O)O)C(=O)N[C@H](C)[C@H](O)CC2CCCCC2)cc1O [compound 14, N-[3-methyl-3-(3-hydroxy-4-methoxyphenyl)butyl]-α-L-aspartyl N-(1R,2R)-1-methyl-2-hydroxy-3-cyclohexylpropyl amide] | 5000 times | 5000 |  |
| CC[C@@H](C[C@H](O)[C@@H](C)NC(=O)[C@H](CC(=O)O)NCCC(C)(C)CCO)c1ccccc1 [compound 15, N-(3,3-dimethyl-5-hydroxypentyl)-α-L-aspartyl N-(1R,2S,4S)-1-methyl-2-hydroxy-4-phenylhexyl amide] | 6500 times | 6500 |  |
| CC[C@@H](C[C@H](O)[C@@H](C)NC(=O)[C@H](CC(=O)O)NCCC(C)(C)CCCO)c1ccccc1 [compound 16, N-(3,3-dimethyl-6-hydroxyhexyl)-α-L-aspartyl N-(1R,2S,4S)-1-methyl-2-hydroxy-4-phenylhexyl amide] | 4500 times | 4500 |  |
